# Results taken from patent US11731969B2, “Crystal polymorph of 8-bromo-2-(1-methylpiperidin-4-ylamino)-4-(4-phenoxyphenylamino)pyrido[4,3-d]pyrimidin-5(6H)-one hydrochloride and method for preparing same” (OSCOTEC INC., priority 2018, dated 2023).
# Structures can show the parent of a compound that is named as a salt.
# What was measured:
# [1] = Evaluation of solubility in distilled water (HPLC); assay type: physicochemical; conditions: for Solubility: distilled water, 20 mg/ml added, stirred 2 hours at room temperature (25° C.), filtered, HPLC, hydrochloride; for Solubility as compared with Compound 1 (in words): summary of Table 1
# Protocol: Distilled water was added to 8-bromo-2-(1-methylpiperidin-4-ylamino)-4-(4-phenoxyphenylamino)pyrido[4,3-d]pyrimidin-5(6H)-one hydrochloride (Compound 1) represented by the above Formula 1 and the crystalline form (VI) and the crystalline form (X) obtained in the Examples such that the concentration was 20 mg/ml, which was stirred for 2 hours at room temperature (25° C.) and then filtered. Thereafter, it was diluted 200 times with acetonitrile of a concentration of 50%.
# [2] = Evaluation of hygroscopicity by dynamic moisture adsorption analyzer (DVS); assay type: physicochemical; conditions: for Hygroscopicity (%): 25° C., DVS, hydrochloride
# Protocol: 8-bromo-2-(1-methylpiperidin-4-ylamino)-4-(4-phenoxyphenylamino)pyrido[4,3-d]pyrimidin-5(6H)-one hydrochloride (Compound 1) represented by the above Formula 1 and the crystalline form (VI) obtained in the Examples were measured for hygroscopicity in a relative humidity range of 0% to 90% at 25° C. using a dynamic moisture adsorption analyzer (DVS).
# protein kinase = conditions: see Korean Laid-open Patent Publication No. 2014-0144709; cited from earlier work
Solubility [1] [mg/mL],Hygroscopicity (%) ([2]; relative humidity 0.0%),Hygroscopicity (%) ([2]; relative humidity 10.0%),Hygroscopicity (%) ([2]; relative humidity 20.0%),Hygroscopicity (%) ([2]; relative humidity 30.0%),Hygroscopicity (%) ([2]; relative humidity 40.0%),Hygroscopicity (%) ([2]; relative humidity 50.0%),Hygroscopicity (%) ([2]; relative humidity 60.0%),Hygroscopicity (%) ([2]; relative humidity 70.0%),Hygroscopicity (%) ([2]; relative humidity 80.0%),Hygroscopicity (%) ([2]; relative humidity 90.0%),Solubility as compared with Compound 1 (in words) [1],Hygroscopicity as compared with Compound 1 (in words) ([2]; summary of Table 2),SMILES,Effect on the activity of protein kinase (in words) (protein kinase)
0.25,0.001,0.655,1.202,1.695,2.081,2.457,2.823,3.215,3.696,4.584,,,"CN1CCC(Nc2nc(Nc3ccc(Oc4ccccc4)cc3)c3c(=O)[nH]cc(Br)c3n2)CC1 [Compound 1, 8-bromo-2-(1-methylpiperidin-4-ylamino)-4-(4-phenoxyphenylamino)pyrido[4,3-d]pyrimidin-5(6H)-one hydrochloride]",has an effect of inhibiting the activity of protein kinase
19.1,0.004,0.707,0.948,1.132,1.280,1.419,1.561,1.726,1.973,2.452,improved solubility,improved hygroscopicity,"CN1CCC(Nc2nc(Nc3ccc(Oc4ccccc4)cc3)c3c(=O)[nH]cc(Br)c3n2)CC1 [Crystalline form (VI), 8-bromo-2-(1-methylpiperidin-4-ylamino)-4-(4-phenoxyphenylamino)pyrido[4,3-d]pyrimidin-5(6H)-one hydrochloride]",
17.3,,,,,,,,,,,improved solubility,,"CN1CCC(Nc2nc(Nc3ccc(Oc4ccccc4)cc3)c3c(=O)[nH]cc(Br)c3n2)CC1 [Crystalline form (X), 8-bromo-2-(1-methylpiperidin-4-ylamino)-4-(4-phenoxyphenylamino)pyrido[4,3-d]pyrimidin-5(6H)-one hydrochloride]",
